Laboratory results from PubChem BioAssay AID256 (DTP/NCI, 2004).
Where “and” joins values, the source holds several entries; their conditions need not be identical. Equal values may be shown once. Toxic doses and inconclusive results are not listed.

System: CD2F1 mice, L1210 leukemia ip, survival T/C
Assay: NCI In Vivo Anticancer Drug Screen. Data for tumor model L1210 Leukemia (intraperitoneal) in CD2F1 (CDF1) mice
Conditions: higher = longer survival
In short: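 Read-out first: treated-group measurement over vehicle-control measurement, expressed as a ratio. Animals bore a transplanted tumor line and were dosed with compound or vehicle.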

[1] = endpoint: mean survival time, dose: 200.0 mg/kg/injection, schedule: Q01DX001 (ip), vehicle: saline
[2] = endpoint: mean survival time, dose: 100.0 mg/kg/injection, schedule: Q01DX009 (ip), vehicle: saline with Tween-80
[3] = endpoint: mean survival time, dose: 200.0 mg/kg/injection, schedule: Q01DX009 (ip), vehicle: saline with Tween-80
[4] = endpoint: mean survival time, dose: 400.0 mg/kg/injection, schedule: Q01DX009 (ip), vehicle: saline with Tween-80
[5] = endpoint: mean survival time, dose: 100.0 mg/kg/injection, schedule: Q04DX003 (ip), vehicle: saline with Tween-80
[6] = endpoint: mean survival time, dose: 200.0 mg/kg/injection, schedule: Q04DX003 (ip), vehicle: saline with Tween-80
[7] = endpoint: mean survival time, dose: 400.0 mg/kg/injection, schedule: Q04DX003 (ip), vehicle: saline with Tween-80
[8] = endpoint: mean survival time, dose: 100.0 mg/kg/injection, schedule: Q01DX001 (ip), vehicle: saline
[9] = endpoint: mean survival time, dose: 400.0 mg/kg/injection, schedule: Q01DX001 (ip), vehicle: saline
[10] = endpoint: mean survival time, dose: 75.0 mg/kg/injection, schedule: Q01DX001 (ip), vehicle: other
[11] = endpoint: mean survival time, dose: 150.0 mg/kg/injection, schedule: Q01DX001 (ip), vehicle: other

For `Cc1c(C)c(NC(=O)/C=C/C(=O)O)c(C)c(C)c1NC(=O)/C=C\C(=O)O`, the T/C (endpoint: mean survival time, dose: 100.0 mg/kg/injection, schedule: Q01DX001 (ip), vehicle: Klucel (hydroxypropylcellulose) (HPC)) was 101 % of control, the T/C (endpoint: mean survival time, dose: 200.0 mg/kg/injection, schedule: Q01DX001 (ip), vehicle: Klucel (hydroxypropylcellulose) (HPC)) was 96 % of control and the T/C (endpoint: mean survival time, dose: 400.0 mg/kg/injection, schedule: Q01DX001 (ip), vehicle: Klucel (hydroxypropylcellulose) (HPC)) was 98 % of control.
With `Nc1ccc(-c2c(N)nc(Br)c3ccccc23)cc1` the T/C (endpoint: mean survival time, dose: 50.0 mg/kg/injection, schedule: Q04DX003 (ip), vehicle: DMSO) was 98 % of control, the T/C (endpoint: mean survival time, dose: 100.0 mg/kg/injection, schedule: Q04DX003 (ip), vehicle: DMSO) was 93 % of control and the T/C (endpoint: mean survival time, dose: 200.0 mg/kg/injection, schedule: Q04DX003 (ip), vehicle: DMSO) was 110 % of control. For the same molecule, the T/C (endpoint: mean survival time, dose: 400.0 mg/kg/injection, schedule: Q04DX003 (ip), vehicle: DMSO) was 104 % of control.
With `O=C1C=CC(=O)C=C1` (tested in a mixture with another compound) the T/C (endpoint: mean survival time, dose: 1.0 mg/kg/injection, schedule: Q01DX009 (ip), vehicle: saline sonified) was 98 % of control, the T/C (endpoint: mean survival time, dose: 1.0 mg/kg/injection, schedule: Q04DX003 (ip), vehicle: saline with Tween-80) was 97 % of control and the T/C (endpoint: mean survival time, dose: 2.0 mg/kg/injection, schedule: Q01DX009 (ip), vehicle: saline sonified) was 94 % of control. The T/C (endpoint: mean survival time, dose: 2.0 mg/kg/injection, schedule: Q04DX003 (ip), vehicle: saline with Tween-80) was 95 % of control, the T/C (endpoint: mean survival time, dose: 3.0 mg/kg/injection, schedule: Q01DX009 (ip), vehicle: saline sonified) was 98 % of control and the T/C (endpoint: mean survival time, dose: 3.0 mg/kg/injection, schedule: Q04DX003 (ip), vehicle: saline with Tween-80) was 95 % of control. For the same molecule, the T/C (endpoint: mean survival time, dose: 6.0 mg/kg/injection, schedule: Q01DX009 (ip), vehicle: saline sonified) was 90 % of control and the T/C (endpoint: mean survival time, dose: 6.0 mg/kg/injection, schedule: Q04DX003 (ip), vehicle: saline with Tween-80) was 97 % of control.
For `Cc1nc(C)c(Cc2ccccc2O)c(=O)[nH]1`, the T/C [1] was 103 % of control.
In the case of `CC(C)(C)c1cc(O)c(O)c(C(C)(C)C)c1`, the T/C (endpoint: mean survival time, dose: 100.0 mg/kg/injection, schedule: Q04DX003 (ip), vehicle: other) is reported as 101 % of control and the T/C (endpoint: mean survival time, dose: 200.0 mg/kg/injection, schedule: Q04DX003 (ip), vehicle: other) is reported as 95 % of control.
In the case of `O=C1OC(=O)C2C3CC(C4OC34)C12` (stereo not given), the T/C [2] is reported as 103 % of control, the T/C [3] is reported as 97 % of control and the T/C [4] is reported as 87 % of control.
`Cc1c(C)c(O)c(Br)c(C)c1O` (tested in a mixture with another compound) was tested, and the T/C (endpoint: mean survival time, dose: 25.0 mg/kg/injection, schedule: Q04DX003 (ip), vehicle: other) was 100 % of control and the T/C (endpoint: mean survival time, dose: 50.0 mg/kg/injection, schedule: Q04DX003 (ip), vehicle: other) was 94 % of control.
With `Nc1ccc2[nH]c(=S)sc2c1` the T/C [5] was 94 % of control, the T/C [6] was 92 % of control and the T/C [7] was 90 % of control.
`N#CC12CCCC(=O)N1C=Cc1ccccc12` (stereo not given) was tested, and the T/C [8] was 107 % of control, the T/C [1] was 100 % of control and the T/C [9] was 97 % of control.
In the case of `C[Si]1(C)N(c2ccccc2)[Si](C)(C)N(c2ccccc2)[Si](C)(C)N1c1ccccc1`, the T/C [2] is reported as 105 % of control, the T/C [5] is reported as 105 % of control and the T/C [3] is reported as 107 % of control. For the same molecule, the T/C [6] was 94 % of control, the T/C [4] was 106 % of control and the T/C [7] was 93 % of control.
`CC(C)/C=C\C=C\C(C)C` was tested, and the T/C (endpoint: mean survival time, dose: 50.0 mg/kg/injection, schedule: Q01DX009 (ip), vehicle: saline with Tween-80) was 96 % of control, the T/C [2] was 103 % of control and the T/C [3] was 96 % of control.
`COc1ccc(OC)c(NC(=O)N2CCCC(C)C2)c1` (stereo not given) was tested, and the T/C (endpoint: mean survival time, dose: 88.0 mg/kg/injection, schedule: Q01DX009 (ip), vehicle: other) was 95 % of control, the T/C (endpoint: mean survival time, dose: 100.0 mg/kg/injection, schedule: Q01DX009 (ip), vehicle: other) was 124 % of control and the T/C (endpoint: mean survival time, dose: 133.0 mg/kg/injection, schedule: Q01DX009 (ip), vehicle: other) was 95 % of control. For the same molecule, the T/C (endpoint: mean survival time, dose: 300.0 mg/kg/injection, schedule: Q01DX009 (ip), vehicle: other) was 95 % of control.
For `COc1ccc(-c2nc3cc(Cl)ccc3c(=O)o2)cc1`, the T/C [5] was 88 % of control, the T/C [6] was 91 % of control and the T/C [7] was 88 % of control.
`CCCCCCC[CH2][Sn]([CH2]CCCCCCC)([NH]S(=O)(=O)c1ccc(C)cc1)[NH]S(=O)(=O)c1ccc(C)cc1` was tested, and the T/C [10] was 113 % of control and the T/C [11] was 107 % of control.
For `O=C1/C(=C/C2CCC3CCCCC3[N-]2)N2CCC1CC2.[Cl][Co][Cl]` (stereo not given), the T/C (endpoint: mean survival time, dose: 9.4 mg/kg/injection, schedule: Q04DX003 (ip), vehicle: saline) was 102 % of control, the T/C (endpoint: mean survival time, dose: 18.8 mg/kg/injection, schedule: Q04DX003 (ip), vehicle: saline) was 100 % of control and the T/C (endpoint: mean survival time, dose: 37.5 mg/kg/injection, schedule: Q04DX003 (ip), vehicle: saline) was 109 % of control.
With `O=c1[nH]cccc1[N+](=O)[O-]` the T/C [5] was 106 % of control, the T/C [6] was 106 % of control and the T/C [7] was 101 % of control.
`NC(=O)NC(CC(=O)O)C(=O)O` (stereo not given) was tested, and the T/C [2] was 96 % of control, the T/C [3] was 98 % of control and the T/C [4] was 95 % of control.
With `O=S(=O)([O-])O.O=S(O)S(=O)O.[Co+3].[NH2-].[NH2-].[NH2-].[NH2-].[NH2-]` the T/C (endpoint: mean survival time, dose: 100.0 mg/kg/injection, schedule: Q04DX002 (ip), vehicle: saline with Tween-80) was 97 % of control.
For `CCCCC(=O)/C=C/Sc1n[nH]c(=O)[nH]c1=O`, the T/C (endpoint: mean survival time, dose: 12.5 mg/kg/injection, schedule: Q01DX005 (ip), vehicle: distilled water + Tween-80) was 104 % of control, the T/C (endpoint: mean survival time, dose: 25.0 mg/kg/injection, schedule: Q01DX005 (ip), vehicle: distilled water + Tween-80) was 93 % of control and the T/C (endpoint: mean survival time, dose: 50.0 mg/kg/injection, schedule: Q01DX005 (ip), vehicle: distilled water + Tween-80) was 90 % of control.
For `O=C(O)c1[nH]c2c([N+](=O)[O-])cc([N+](=O)[O-])cc2c1C(=O)O`, the T/C (endpoint: mean survival time, dose: 75.0 mg/kg/injection, schedule: Q01DX001 (ip), vehicle: saline) was 103 % of control and the T/C (endpoint: mean survival time, dose: 150.0 mg/kg/injection, schedule: Q01DX001 (ip), vehicle: saline) was 97 % of control.
`Cc1cc(C)c(SC2c3ccccc3-c3ccccc32)c(C)c1` was tested, and the T/C [8] was 94 % of control, the T/C (endpoint: mean survival time, dose: 100.0 mg/kg/injection, schedule: Q04DX003 (ip), vehicle: saline) was 98 % of control and the T/C [1] was 95 % of control. For the same molecule, the T/C (endpoint: mean survival time, dose: 200.0 mg/kg/injection, schedule: Q04DX003 (ip), vehicle: saline) was 90 % of control, the T/C [9] was 94 % of control and the T/C (endpoint: mean survival time, dose: 400.0 mg/kg/injection, schedule: Q04DX003 (ip), vehicle: saline) was 97 % of control.
In the case of `ClCc1ccc(Cl)cc1`, the T/C (endpoint: mean survival time, dose: 25.0 mg/kg/injection, schedule: Q01DX001 (ip), vehicle: saline with Tween-80) is reported as 102 % of control, the T/C (endpoint: mean survival time, dose: 50.0 mg/kg/injection, schedule: Q01DX001 (ip), vehicle: saline with Tween-80) is reported as 106 % of control and the T/C (endpoint: mean survival time, dose: 100.0 mg/kg/injection, schedule: Q01DX001 (ip), vehicle: saline with Tween-80) is reported as 92 % of control and 102 % of control.
`COC(=O)Nc1cccc(OC(=O)N(C)C)c1` was tested, and the T/C [2] was 97 % of control, the T/C [3] was 97 % of control and the T/C [4] was 96 % of control.
`CCN1CCSC1=S` was tested, and the T/C [10] was 102 % of control, the T/C [11] was 100 % of control and the T/C (endpoint: mean survival time, dose: 300.0 mg/kg/injection, schedule: Q01DX001 (ip), vehicle: other) was 103 % of control.
In the case of `C[n+]1ccc2ccccc2c1SC1CCC2CC3CC2C1C3` (stereo not given), the T/C (endpoint: mean survival time, dose: 10.0 mg/kg/injection, schedule: Q01DX009 (iv), vehicle: methylcellulose (MC)) is reported as 97 % of control and the T/C (endpoint: mean survival time, dose: 20.0 mg/kg/injection, schedule: Q01DX009 (iv), vehicle: methylcellulose (MC)) is reported as 97 % of control.
With `Brc1ccc2c(c1)Cc1cc(N=Cc3ccc4c(c3)OCO4)ccc1-2` the T/C (endpoint: mean survival time, dose: 100.0 mg/kg/injection, schedule: Q01DX001 (ip), vehicle: carboxymethylcellulose (CMC)) was 97 % of control, the T/C (endpoint: mean survival time, dose: 200.0 mg/kg/injection, schedule: Q01DX001 (ip), vehicle: carboxymethylcellulose (CMC)) was 94 % of control and the T/C (endpoint: mean survival time, dose: 400.0 mg/kg/injection, schedule: Q01DX001 (ip), vehicle: carboxymethylcellulose (CMC)) was 100 % of control.
For `CS(=O)(=O)c1nc2ccccc2s1`, the T/C [2] was 103 % of control and the T/C [3] was 91 % of control.
With `CCC1(OC(=O)CN2CCN(CCCO)CC2)C(=O)OCc2c1cc1n(c2=O)Cc2cc3ccccc3nc2-1` (stereo not given) the T/C (endpoint: median survival time, dose: 6.25 mg/kg/injection, schedule: Q04DX002 (ip), vehicle: water) was 106 % of control, the T/C (endpoint: median survival time, dose: 12.5 mg/kg/injection, schedule: Q04DX002 (ip), vehicle: water) was 107 % of control and 108 % of control and the T/C (endpoint: median survival time, dose: 25.0 mg/kg/injection, schedule: Q04DX002 (ip), vehicle: water) was 121 % of control and 111 % of control. For the same molecule, the T/C (endpoint: median survival time, dose: 50.0 mg/kg/injection, schedule: Q04DX002 (ip), vehicle: water) was 120 % of control and the T/C (endpoint: median survival time, dose: 100.0 mg/kg/injection, schedule: Q04DX002 (ip), vehicle: water) was 170 % of control.
With `OCCOc1cccc(OCCO)c1` the T/C [2] was 96 % of control, the T/C [3] was 96 % of control and the T/C [4] was 115 % of control.
`Cc1ccc2c(c1)CN(C13CC4CC(CC(C4)C1)C3)CO2` was tested, and the T/C [2] was 96 % of control, the T/C [3] was 96 % of control and the T/C [4] was 97 % of control.
